Data taken from patent publication US20160326153A1, “N-SUBSTITUTED IMINO HETEROCYCLIC COMPOUNDS” (BASF SE, priority 2013, published 2016).

How the values were obtained:
Assay type in all cases: in vivo
[1] = system: Nilaparvata lugens; test: Rice brown plant hopper (Nilaparvata lugens) on sprayed rice seedlings; conditions: 100 ppm; after 72 hours
Protocol: B.9 Rice Brown Plant Hopper (Nilaparvata lugens)
(§1) Rice seedlings were cleaned and washed 24 hours before spraying. The active compounds were formulated in 1:1 acetone:water (vol:vol) and 0.01% vol/vol surfactant (Kinetic HV) was added. Potted rice seedlings were sprayed with 5 ml test solution, air dried, covered with Mylar cages and inoculated with 10 adults. Treated rice plants were kept at about 28-29° C. and relative humidity of about 50-60%. Percent mortality was recorded after 72 hours.

[2] = system: Megoura viciae; test: Vetch aphid (Megoura viciae) through contact or systemic means, broad bean leaf disks; conditions: foliar, 120 h, read-out: mortality in comparison with untreated controls
Protocol: B.10 Vetch Aphid (Megoura viciae)
For evaluating control of vetch aphid (Megoura viciae) through contact or systemic means the test unit consisted of 24-well-microtiter plates containing broad bean leaf disks.
The compounds were formulated using a solution containing 75% v/v water and 25% v/v DMSO. Different concentrations of formulated compounds were sprayed onto the leaf disks at 2.5 μl, using a custom built micro atomizer, at two replications.
After application, the leaf disks were air-dried and 5-8 adult aphids placed on the leaf disks inside the microtiter plate wells. The aphids were then allowed to suck on the treated leaf disks and incubated at about 23±1° C. and about 50±5% relative humidity for 5 days. Aphid mortality and fecundity was then visually assessed.

[3] = system: Myzus persicae; test: Green peach aphid (Myzus persicae) through systemic means, artificial diet under membrane in microtiter plates; conditions: 72 h, read-out: mortality in comparison with untreated controls
Excerpt: For evaluating control of green peach aphid (Myzus persicae) through systemic means the test unit consisted of 96-well-microtiter plates containing liquid artificial diet under an artificial membrane.
The compounds were formulated using a solution containing 75% v/v water and 25% v/v DMSO. Different concentrations of formulated compounds were pipetted into the aphid diet, using a custom built pipetter, at two replications.
After application, 5-8 adult aphids were placed on the artificial membrane inside the microtiter plate wells. The aphids were then allowed to suck on the treated aphid diet and incubated at about 23±1° C. and about 50±5% relative humidity for 3 days. Aphid mortality and fecundity was then visually assessed.

[4] = system: Aedes aegypti; test: whole plant or invertebrate; conditions: 48 h, larval mortality after 2 days, read-out: mortality in comparison with untreated controls
Protocol: B.11 Yellow Fever Mosquito (Aedes aegypti)
For evaluating control of yellow fever mosquito (Aedes aegypti) the test unit consisted of 96-well-microtiter plates containing 200 μl of tap water per well and 5-15 freshly hatched A. aegypti larvae.
The active compounds were formulated using a solution containing 75% (v/v) water and 25% (v/v) DMSO. Different concentrations of formulated compounds or mixtures were sprayed onto the insect diet at 2.5 μl, using a custom built micro atomizer, at two replications.
After application, microtiter plates were incubated at 28+1° C., 80+5% RH for 2 days. Larval mortality was then visually assessed.

[5] = system: Nephotettix virescens; test: Rice green leafhopper (Nephotettix virescens) on sprayed rice seedlings; conditions: 72 h, read-out: mortality in comparison with untreated controls
Protocol: B.7 Rice Green Leafhopper (Nephotettix virescens)
as §1, with “acetone:water (vol:vol),” for “acetone:water (vol:vol)”, “with 5-6” for “with 5”, “Mylar cages” for “Mylar”

[6] = system: Ceratitis capitata; test: Mediterranean fruitfly (Ceratitis capitata) control, microtiter plates with insect diet and eggs; conditions: 120 h, read-out: mortality in comparison with untreated controls
Protocol: B.5 Mediterranean Fruitfly (Ceratitis capitata)
For evaluating control of Mediterranean fruitfly (Ceratitis capitata) the test unit consisted of microtiter plates containing an insect diet and 50-80 C. capitata eggs.
The compounds were formulated using a solution containing 75% v/v water and 25% v/v DMSO. Different concentrations of formulated compounds were sprayed onto the insect diet at 5 μl, using a custom built micro atomizer, at two replications.
After application, microtiter plates were incubated at about 28±1° C. and about 80±5% relative humidity for 5 days. Egg and larval mortality was then visually assessed.

[7] = system: Aphis craccivora; test: Cowpea aphid (Aphis craccivora) on sprayed cowpea plants; conditions: 72 h, read-out: mortality in comparison with untreated controls
Protocol: B.3 Cowpea Aphid (Aphis craccivora)
The active compound is dissolved at the desired concentration in a mixture of 1:1 (vol:vol) distilled water:acetone. Surfactant (Kinetic HV) is added at a rate of 0.01% (vol/vol). The test solution is prepared at the day of use.
Potted cowpea plants were colonized with approximately 50-100 aphids of various stages by manually transferring a leaf tissue cut from infested plant 24 hours before application. Plants were sprayed after the pest population has been recorded. Treated plants are maintained on light carts at about 28° C. Percent mortality was assessed after 72 hours.

| SMILES | mortality in comparison with untreated controls [1] | mortality at 2500 ppm [2] | mortality at 2500 ppm [3] | mortality at 2500 ppm [4] | mortality at 500 ppm [5] | mortality at 2500 ppm [6] | mortality at 500 ppm [7] |
| --- | --- | --- | --- | --- | --- | --- | --- |
| O=C(NCC(F)(F)F)NN=c1ccccn1Cc1ccc(Cl)nc1 [IB.1-3] | at least 75% |  |  |  |  |  |  |
| CO/N=C/C(=O)ON=c1ccccn1Cc1cnc(Cl)s1 (mixture of isomers) [IA.1-4, [(E/Z)-[1-[(2-chlorothiazol-5-yl)methyl]-2-pyridylidene]amino] (2E/Z)-2-methoxyimino-acetate] |  | ≥ 75% | ≥ 75% | ≥ 75% |  |  |  |
| CNC(=O)NN=c1ccccn1Cc1ccc(Cl)nc1 (mixture of isomers) [IB.1-1, 1-[(E/Z)-[1-[(6-chloro-3-pyridyl)methyl]-2-pyridylidene]amino]-3-methyl-urea] |  | ≥ 75% | ≥ 75% | ≥ 75% | ≥ 75% | ≥ 75% | ≥ 75% |
